Assays:
[1] = time of release/action of active substances after application to the skin; format: in vivo; details: for time of release on application to the skin: Example 4, product as it is or mixed with cosmetic cream, gel or lotion
Protocol: The microspheres are constituted by a copolymer of 2 moles of styrene with 2 moles of butadiene and 1 mole of 2-aminoethanol methacrylate. They are prepared in the known manner, in aqueous dispersion with Na dodecylsulfate as a surfactant and K persulfate as a catalyst. After polymerization, the microspheres are neutralized, purified by aqueous dialysis and passed over an ion-exchange resin.
0.09 g of pyrrolidone carboxylic acid, which binds to the methacrylate --NH2 group forming a covalent amide bond, is added to 100 ml of suspension of 4 g of these microspheres numbering […] (average size 96 nm). Another purification is then carried out and 6.1 g of dimethyl silanol hyaluronate, the same as in example 1, are added to the suspension and adsorbed.
The resulting suspension of 106.1 g thus contains 0.09 g of pyrrolidone carboxylic acid and 0.28 g of the Si contained in dimethyl silanol hyaluronate. Application to the skin of the product as it is, or mixed with a cosmetic cream, gel or lotion leads to release of the pyrrolidone compound in 2 to 5 hours and release of the hyaluronate compound in 10 to 17 hours. A synergetic effect of the two active substances is also observed for 2 to 5 hours, followed by a longer period of hyaluronate action only.
The microspheres prepared in the known manner, described at the beginning of example 4, consist of a copolymer of 4 moles of styrene with 1 mole of acrylic acid.
(A)-100 g of an aqueous suspension of 5 g of microspheres are reacted with 0.126 g of theophylline, which binds to the acryl groups.
(B)-The microspheres are then given functional groups using diamine hexamethylene, after which they are treated with a 40 g/kg elastin aqueous solution. 0.3 g of elastin polypeptides thus bind to the copolymer.
(C)-The product obtained is purified and made to adsorb Ruscus Aculeatus glucosides, from an aqueous extract of this plant (Ruscus 1=33).

[2] = adsorption (charging) of active substance onto copolymer microspheres/nanospheres; format: physicochemical; details: 60% styrene / 40% methyl methacrylate copolymer, average 95 nm; room temperature, 48 hours
[3] = Protocol: 100 g of an aqueous suspension of 5 g of nanospheres having a diameter of about 70 to 130 nm (average 100 nm) are prepared by the copolymerization of an emulsion of 4 moles of styrene and 1 mole of acrylic acid, according to the technique described in example 2. 0.126 g of theophylline, which binds to the acrylic acid groups of the copolymer by an electronic-type chemical interaction, is added to these 100 g.
A liquid product (a-b) composed of two sets of copolymer/active substance nanospheres is thus obtained:
The liquid (a-b) is submitted to tests on an experimental model, reproducing diffusion phenomena in the skin.
The proportions of each of the active substances which may have been in contact with the skin in 3 hours is thus determined.
Given below are the percentages of the initial amount of each of these active substances which, according to the tests mentioned hereinabove, may have been diffused into the skin from the liquid studied:
They thus contained no --COOH groups likely to react with the --NH groups of theophylline. […]
As above, the amount of active principal available to the skin in 3 hours was determined. […]
The proportion of theophylline which is available to the skin in 3 hours and in 5 hours is then determined from 100 g of an aqueous suspension of 5 g of nanosphere charged as described above. […]

Row | Compound | time of release on application to the skin [1] | microspheres are charged with dimethylsilanediol hyaluronate [2] | time of action after application ([1]; in vivo) | amount available to the skin, tempering ratio without : with nanospheres [3] | amount of active principal available to the skin in 3 hours [3]
1 | O=C1CC[C@@H](C(=O)O)N1 [pyrrolidone carboxylic acid] | 2 to 5 h |  |  |  | 
2 | dimethylsilanediol hyaluronate | 10 to 17 h | 30% |  |  | 
3 | Cn1c(=O)c2[nH]cnc2n(C)c1=O [theophylline] |  |  | 2 to 8 h | 2.5 times | 20%
